Reference: patent EP1458697B1, “BIPHENYLMETHYL-THIAZOLIDINEDIONES AND ANALOGUES AND THEIR USE AS PPAR-GAMMA ACTIVATORS” (Galderma Research & Development, S.N.C., priority 2001, dated 2003)
Each block holds one molecule with its values, some of them ahead of it.

What was measured:
[1] = target: T1, récepteur chimère Gal-PPARγ (LBD) (Homo sapiens, UniProt P37231); test: Transactivation test, Hela cells stably transfected with chimeric receptor Gal-PPARγ (LBD), luciferase readout; type: cell-based; settings: M-HeLa, 24 h, compound at 1 microM, percent of activation relative to reference agonist at 1 µM, read-out: % d'activation (à 1 microM) PPARγ
T1 construct: le récepteur chimère Gal-PPARγ (LBD); Gal (fusion partner); expressed in transfected cells; host or cells: HeLa cells, stably transfected
T1 sequence (P37231 238-503 limits assumed): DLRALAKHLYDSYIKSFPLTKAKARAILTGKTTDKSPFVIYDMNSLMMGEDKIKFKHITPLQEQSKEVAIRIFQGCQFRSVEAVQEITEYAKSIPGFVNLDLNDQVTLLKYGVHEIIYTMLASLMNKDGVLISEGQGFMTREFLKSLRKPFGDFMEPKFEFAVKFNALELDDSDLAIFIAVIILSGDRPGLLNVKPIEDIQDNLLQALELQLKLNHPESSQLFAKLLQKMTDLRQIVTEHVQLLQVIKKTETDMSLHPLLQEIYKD
Procedure: L'activité agoniste vis à vis des récepteurs PPARγ des composés selon l'invention peut être évaluée par des tests de transactivation.
(§1) La capacité des molécules à activer et/ou inhiber les récepteurs PPARγ est évaluée à partir de cellules Hela transfectées de manière stable avec le récepteur chimère Gal-PPARγ (LBD).
(§2) Des plaques 96 puits sont ensemencées à raison de 10 000 cellules /100 µl / puit dans du milieu DMEM 10% SDL puis placées 24 heures à 37°C, 7% CO2.
(§3) Pour déterminer l'activité agoniste PPARγ, les cellules sont ensuite traitées par ajout de 5 µl puit des molécules à tester à la concentration finale de 1 µM. Des cellules sont également traitées en parallèle avec un agoniste de référence, l'acide (-)-3-{4-[2-(Benzooxazol-2-yl-methyl-amino)-ethoxy]-phenyl}-2-ethoxy-propionique, 1 µM.
(§4) Après une nouvelle incubation de 24 heures à 37°C, 7% CO2, un dosage de la luciférase est effectué à l'aide du kit « Steady-Glo Luciferase Assay System » de Promega. Le comptage de la luminescence se fait sur un lecteur de microplaque Microbéta Trilux (Wallac).
(§5) L'activité agoniste du produit testé sera exprimée en pourcentage d'activation par rapport au témoin agoniste l'agoniste de référence à 1 µM.
(§6) L'AC50, exprimée en nM, est déterminée comme la concentration permettant d'obtenir 50% d'activation du signal basal par rapport à l'agoniste de référence.

[2] = target: T2, récepteur chimère Gal-PPARα (Homo sapiens, UniProt Q07869); test: Transactivation test, same protocol with chimeric receptor Gal-PPARα; type: cell-based; settings: Hela cells; for activation at 1 µM: 24 h, compound at 1 microM, percent of activation relative to reference agonist (Wy 14643 = 100%), read-out: % d'activation (à 1 microM) PPARα; for AC50: concentration giving 50% activation relative to reference agonist, read-out: AC50 (en nM) PPARα
T2 sequence (Q07869 167-468): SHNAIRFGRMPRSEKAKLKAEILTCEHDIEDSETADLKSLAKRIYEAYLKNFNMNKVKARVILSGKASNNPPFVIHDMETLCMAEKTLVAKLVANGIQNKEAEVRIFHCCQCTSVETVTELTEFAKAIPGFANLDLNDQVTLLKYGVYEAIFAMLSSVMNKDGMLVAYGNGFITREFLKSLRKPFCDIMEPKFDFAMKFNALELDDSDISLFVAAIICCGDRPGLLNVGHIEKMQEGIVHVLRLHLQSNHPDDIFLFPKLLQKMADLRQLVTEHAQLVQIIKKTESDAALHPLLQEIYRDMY
Source text: De préférence, l'activateur des récepteurs de type PPARγ est spécifique, c'est à dire qu'il présente un rapport du pourcentage d'activation des récepteurs PPARγ, au pourcentage d'activation des récepteurs PPARα (calculé par rapport à un composé de référence, le Wy 14643, activant les PPARα de 100%) supérieur ou égal à 3. De préférence, ce rapport est supérieur ou égal à 5 et plus avantageusement supérieur ou égal à 10.
as §1, §2, §3, §4, §5
En appliquant ce même protocole avec le récepteur chimère Gal-PPARα, on peut mesurer l'activité agoniste des composés vis à vis des récepteurs PPAR alpha et ainsi la comparer avec celui du récepteur PPARγ.
as §6

Structure (SMILES): CN(Cc1cccc(-c2ccc(CC3SC(=O)NC3=O)cc2)c1)C(=O)c1cccn1C (stereo not drawn) [Composé de l'exemple 8, N-[4'-(2,4-dioxo-thiazolidin-5-ylmethyl)-biphenyl-3-ylmethyl]-N-methyl-1-Methyl-1H-pyrrole-2-carboxamide]
- activation at 1 µM [1]: 97.2%
- activation at 1 µM [2]: 33.6%

Structure (SMILES): COCCOCOc1ccc2cc(C(=O)N(C)Cc3cccc(-c4ccc(CC5SC(=O)NC5=O)cc4)c3)ccc2c1 (stereo not drawn) [Composé de l'exemple 16, 6-(2-Methoxy-ethoxymethoxy)-N-[4'-(2,4-dioxo-thiazolidin-5-ylmethyl)-biphenyl-3-ylmethyl]-N-methyl-naphthalene-2-carboxamide]
- activation at 1 µM [1]: 93.3%
- activation at 1 µM [2]: 22.9%
- AC50 [2]: > 50000 nM

Structure (SMILES): CCO[C@@H](Cc1ccc(-c2cccc(CN(C)C(=O)CCCCC(=O)c3ccccc3)c2)cc1)C(=O)O [Composé de l'exemple 20, Acide (S)-2-Ethoxy-3-(3'-{[methyl-(6-oxo-6-phenyl-hexanoyl)-amino]-methyl}-biphenyl-4-yl)-propionique]
- activation at 1 µM [1]: 114%
- activation at 1 µM [2]: 41.9%
- AC50 [2]: > 50000 nM

Structure (SMILES): CN(Cc1cccc(-c2ccc(CC3SC(=O)NC3=O)cc2)c1)C(=O)c1ccc(S(C)(=O)=O)cc1 (stereo not drawn) [Composé de l'exemple 14, N-[4'-(2,4-Dioxo-thiazolidin-5-ylmethyl)-biphenyl-3-ylmethyl]-4-methanesulfonyl-N-methyl-benzamide]
- activation at 1 µM [1]: 76.7%
- activation at 1 µM [2]: 19%

Structure (SMILES): CCO[C@@H](Cc1ccc(-c2cccc(CN(C)C(=O)c3ccc(-c4ccccc4)cc3)c2)cc1)C(=O)O [Composé de l'exemple 19, Acide (S)-3-(3'-{[(1-Biphenyl-4-yl-methanoyl)-methyl-amino]-methyl}-biphenyl-4-yl)-2-ethoxy-propionique]
- activation at 1 µM [1]: 102%
- activation at 1 µM [2]: 100%
- AC50 [2]: > 50000 nM

Structure (SMILES): CSc1ccc(C(=O)N(C)Cc2cccc(-c3ccc(CC4SC(=O)NC4=O)cc3)c2)cc1 (stereo not drawn) [Composé de l'exemple 18, N-[4'-(2,4-Dioxo-thiazolidin-5-ylmethyl)-biphenyl-3-ylmethyl]-N-methyl-4-methylsulfanyl-benzamide]
- activation at 1 µM [1]: 90.7%
- activation at 1 µM [2]: 37.3%
- AC50 [2]: > 50000 nM

Structure (SMILES): COC(=O)c1ccc(C(=O)N(C)Cc2cccc(-c3ccc(CC4SC(=O)NC4=O)cc3)c2)cc1 (stereo not drawn) [Composé de l'exemple 3, N-[4'-(2,4-Dioxo-thiazolidin-5-ylmethyl)-biphenyl-3-ylmethyl]-N-methyl-terephthalamatede méthyle]
- activation at 1 µM [2]: 22.3%
- AC50 [2]: > 50000 nM

Structure (SMILES): CN(Cc1cccc(-c2ccc(CC3SC(=O)NC3=O)cc2)c1)C(=O)CCC1CCCC1 (stereo not drawn) [Composé de l'exemple 4, 3-Cyclopentyl-N-[4'-(2,4-dioxo-thiazolidin-5-ylmethyl)-biphenyl-3-ylmethyl]-N-methyl-propionamide]
- activation at 1 µM [2]: 39.8%
- AC50 [2]: > 50000 nM

Structure (SMILES): CN(Cc1cccc(-c2ccc(CC3SC(=O)NC3=O)cc2)c1)C(=O)CCCCC(=O)c1ccccc1 (stereo not drawn) [Composé de l'exemple 12, N-[4'-(2,4-dioxo-thiazolidin-5-ylmethyl)-biphenyl-3-ylmethyl]-N-methyl-6-oxo-6-phenyl-hexanamide]
- activation at 1 µM [1]: 168%
- activation at 1 µM [2]: 12.3%
- AC50 [2]: > 50000 nM

Structure (SMILES): CN(Cc1cccc(-c2ccc(CC3SC(=O)NC3=O)cc2)c1)C(=O)c1cccc2ccccc12 (stereo not drawn) [Composé de l'exemple 5, N-[4'-(2,4-dioxo-thiazolidin-5-ylmethyl)-biphenyl-3-ylmethyl]-N-methyl-naphthalene-1-carboxamide]
- activation at 1 µM [2]: 26.6%
- AC50 [2]: > 50000 nM

Further lines, results first:

- activation at 1 µM [1]: 90%
- activation at 1 µM [2]: 11.9%
Structure (SMILES): CCO[C@@H](Cc1ccc(-c2cccc(CN(C)C(=O)c3ccc4cc(OCOCCOC)ccc4c3)c2)cc1)C(=O)O [Composé de l'exemple 23, Acide (S)-2-Ethoxy-3-{3'-[({1-[6-(2-methoxy-ethoxymethoxy)-naphthalen-2-yl]-methanoyl}-methyl-amino)-methyl]-biphenyl-4-yl}-propionique]

- activation at 1 µM [1]: 106%
- activation at 1 µM [2]: 4.3%
Structure (SMILES): CN(Cc1cccc(-c2ccc(CC3SC(=O)NC3=O)cc2)c1)C(=O)C12CC3CC(CC(C3)C1)C2 (stereo not drawn) [Composé de l'exemple 9, N-[4'-(2,4-dioxo-thiazolidin-5-ylmethyl)-biphenyl-3-ylmethyl]-N-methyl-adamantane-1-carboxamide]

- activation at 1 µM [1]: 183%
- activation at 1 µM [2]: 13.8%
- AC50 [2]: > 50000 nM
Structure (SMILES): CN(Cc1cccc(-c2ccc(CC3SC(=O)NC3=O)cc2)c1)C(=O)c1ccc(-c2ccccc2)cc1 (stereo not drawn) [Composé de l'exemple 10, N-[4'-(2,4-dioxo-thiazolidin-5-ylmethyl)-biphenyl-3-ylmethyl]-N-methyl-biphenyl-4-carboxamide]

- activation at 1 µM [1]: 96.1%
- activation at 1 µM [2]: 15.1%
- AC50 [2]: > 50000 nM
Structure (SMILES): CN(Cc1cccc(-c2ccc(CC3SC(=O)NC3=O)cc2)c1)C(=O)c1ccc2cc(O)ccc2c1 (stereo not drawn) [Composé de l'exemple 17, 6-Hydroxy-N-[4'-(2,4-dioxo-thiazolidin-5-ylmethyl)-biphenyl-3-ylmethyl]-N-methyl-naphthalene-2-carboxamide]

- activation at 1 µM [2]: 7.9%
- AC50 [2]: > 50000 nM
Structure (SMILES): CN(Cc1cccc(-c2ccc(CC3SC(=O)NC3=O)cc2)c1)C(=O)c1ccc2ccccc2c1 (stereo not drawn) [Composé de l'exemple 6, N-[4'-(2,4-dioxo-thiazolidin-5-ylmethyl)-biphenyl-3-ylmethyl]-N-methyl-naphthalene-2-carboxamide]

- activation at 1 µM [1]: 97.2%
- activation at 1 µM [2]: 37.8%
Structure (SMILES): CN(Cc1cccc(-c2ccc(CC3SC(=O)NC3=O)cc2)c1)C(=O)COc1ccccc1 (stereo not drawn) [Composé de l'exemple 7, N-[4'-(2,4-Dioxo-thiazolidin-5-ylmethyl)-biphenyl-3-ylmethyl]-N-methyl-2-phenoxy-acetamide]

- activation at 1 µM [1]: 102%
- activation at 1 µM [2]: 28.8%
- AC50 [2]: > 50000 nM
Structure (SMILES): CN(Cc1cccc(-c2ccc(CC3SC(=O)NC3=O)cc2)c1)C(=O)c1ccc(C(=O)c2ccccc2)cc1 (stereo not drawn) [Composé de l'exemple 15, N-[4'-(2,4-Dioxo-thiazolidin-5-ylmethyl)-biphenyl-3-ylmethyl]-N-methyl-4-(1-phenyl-methanoyl)-benzamide]

- activation at 1 µM [1]: 108%
- activation at 1 µM [2]: -3.9%
Structure (SMILES): CN(C)c1ccc(NC(=O)N(C)c2cccc(-c3ccc(CC4SC(=O)NC4=O)cc3)c2)cc1 (stereo not drawn) [Composé de l'exemple 22, 3-(4-Dimethylamino-phenyl)-1-[4'-(2,4-dioxo-thiazolidin-5-ylmethyl)-biphenyl-3-yl]-1-methyl-urée]

- activation at 1 µM [1]: 90.1%
- activation at 1 µM [2]: 13.2%
- AC50 [2]: > 50000 nM
Structure (SMILES): CN(Cc1cccc(-c2ccc(CC3SC(=O)NC3=O)cc2)c1)C(=O)c1cc2ccccc2s1 (stereo not drawn) [Composé de l'exemple 11, N-[4'-(2,4-dioxo-thiazolidin-5-ylmethyl)-biphenyl-3-ylmethyl]-N-methyl-benzo[b]thiophene-2-carboxamide]

- activation at 1 µM [2]: 13.7%
Structure (SMILES): COC(=O)CCCCCCCCC(=O)N(C)Cc1cccc(-c2ccc(CC3SC(=O)NC3=O)cc2)c1 (stereo not drawn) [Composé de l'exemple 2, 9-{[4'-(2,4-Dioxo-thiazolidin-5-ylmethyl)-biphenyl-3-ylmethyl]-methyl-carbamoyl}-nonanoatede méthyle]
